Values of other authors as cited in patent EP0965341A2 (priority 1998, dated 1999).

Tested on: Atrial Fibrillation-Induced Electrical Remodeling
Settings: pretreatment before AF; conclusion quoted from Circulation vol. 96, No.5, Sept. 1997

CCN(CC)CCNC(=O)c1ccc(N)cc1 [procainamide]
acute, AF-induced changes in atrial electrophysiological properties: not
